Test results published in patent US20140140969A1, “METHODS AND COMPOSITIONS FOR MUSCULAR DYSTROPHIES” (Sangamo BioSciences, Inc., priority 2012, published 2014).

Columns and labels:
human myoblasts = assay: In vitro selection of MGMT^P140K-2A-GFP gene-targeted myoblasts with BG/BCNU; format: cell-based
Description: Consequently, we next verified whether expression from the integrated MGMT^P140K gene, along with the eGFP reporter gene to facilitate tracking of transduced cells, was sufficient to confer myoblasts protection against treatments with BG and BCNU (FIG. 4A). Using IDLV to deliver a MGMT^P140K-eGFP template DNA flanked by CCR5 homology arms, we obtained 40-50% gene addition in myoblasts in the absence of drug selection (FIG. 4B and C). However, to fully evaluate the selection potential of the BG/BCNU combination, we thought it would be more appropriate to work with a population containing a much lower level of gene addition. As such, we generated two populations of gene-targeted myoblasts containing either 3% or 35% of cells expressing the MGMT^P140K-2A-GFP gene using non-transduced cells for dilution. Both populations were exposed to 20 μM BG for one hour followed by increasing doses of BCNU (10, 25, 50 and 100 μM) for two hours (FIG. 4D).
Myoblasts were then allowed to recover for one week after which the proportion of eGFP positive cells was analyzed by flow cytometry, a procedure defined as one cycle of drug selection. […] After three cycles of selection using the same concentration of BCNU, up to 45% of the myoblasts were positive for eGFP, representing a 15-fold enrichment over the initial population. […] In comparison, when starting with a population containing already 35% of gene-targeted myoblasts, over 85% of the cells were expressing eGFP after only one cycle of selection using 50 μM of BCNU (FIG. 4D).
Four weeks post-transduction, gene modified myoblasts containing the MGMT^P140K-2A-GFP cassette inserted at the endogenous CCR5 locus were treated with 50 μM O6BG for two hours followed by increasing doses (range from 10-100 μM) of BCNU for one hour. Cells were then washed with PBS and allowed to proliferate in the presence of […] for seven days before being analyzed by FACS. Where indicated, this procedure was repeated up to two more times. Cells were maintained in the presence of O6BG during their post-treatment expansion to inactivate the endogenous MGMT gene.

[1] = test system: CCR5-specific ZFN pair (exon 3) (artificial); assay: cell_activity; conditions: Cel-1 assay in human myoblasts; cleavage over 30%
[2] = starting population 3%, three cycles, 100 μM BCNU

| Molecule | effect of additional cycle of selection (human myoblasts; starting population 3%, beyond three cycles) | proportion of MGMT^P140K-2A-GFP expressing cells (human myoblasts; starting population 3%, one cycle, 20 μM BG then 100 μM BCNU) | enrichment over the initial population (human myoblasts; [2]) | proportion of myoblasts positive for eGFP (human myoblasts; [2]) | proportion of cells expressing eGFP (human myoblasts; starting population 35%, one cycle, 50 μM BCNU) | activity [1] |
| --- | --- | --- | --- | --- | --- | --- |
| O=NN(CCCl)C(=O)NCCCl [BCNU, 1,3-bis(2-chloroethyl)-N-nitrosourea] | did not allow us to further increase the proportion of eGFP positive cells | 11% | 15 fold | up to 45% | over 85% |  |
| CCR5 locus exon 3 ZFN target |  |  |  |  |  | > 30% |
